Measured values from patent publication US7410663B2, “Oil or fat composition” (Kao Corporation, priority 2002, dated 2008).

Columns and labels:
[1] = Evaluation of gelling properties; type: physicochemical; parameters: key: A: The mixture lacks fluidity and is gelled.; B: The mixture has low fluidity and is gelled slightly.; C: The mixture has fluidity and is partially gelled.; D: The mixture has fluidity and is not gelled at all; settings: 70:30 (weight/weight) mixture of oil or fat composition and water, visually observed
Text: Gelling properties of a 70:30 (weight/weight) mixture of each oil or fat composition and water were visually observed and evaluated based on the below-described criteria. The results are shown in Table 1. • A: The mixture lacks fluidity and is gelled. • B: The mixture has low fluidity and is gelled slightly. • C: The mixture has fluidity and is partially gelled. • D: The mixture has fluidity and is not gelled at all.

PPARγ = molecular target: T1, PPARγ (Homo sapiens, UniProt P37231); experiment: Test on PPARγ activation (GAL4-PPARγ-LBD luciferase reporter in IEC-6 cells); type: cell-based; settings: control set at 100, test substance 500 μM, 24 hours
T1 construct: expressed in transfected cells; host or cells: IEC-6 small intestine epithelial cell line
T1 sequence (P37231 238-503 limits assumed): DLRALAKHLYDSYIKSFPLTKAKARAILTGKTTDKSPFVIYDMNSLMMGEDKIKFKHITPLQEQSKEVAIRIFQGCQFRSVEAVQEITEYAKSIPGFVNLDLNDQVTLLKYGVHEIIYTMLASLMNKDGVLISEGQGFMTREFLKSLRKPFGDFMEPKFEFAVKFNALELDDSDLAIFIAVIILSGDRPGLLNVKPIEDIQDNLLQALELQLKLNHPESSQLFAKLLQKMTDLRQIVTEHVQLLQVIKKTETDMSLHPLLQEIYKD
Experimental: The small intestine epithelial cell line IEC-6 was inoculated on a 12 well plate and cultured in DMEM (5% FCS) for 24 hours. A plasmid (pGAL4-PPARγ-LBD) expressing the chimeric molecules of a GAL4-DNA binding domain (DBD) and a PPARγ ligand binding domain (LBD) and a reporter plasmid (pREP) containing a GAL4 binding sequence upstream of a firefly luciferase gene were introduced simultaneously by using a transfection reagent (“QIAGEN”; Superfect transfection reagent), each in an amount of 0.5 μg/well. In order to monitor the transfection efficiency, a renilla luciferase gene was incorporated in the pGAL4-PPARγ-LBD at the same time. The culture broth was then replaced with a DMEM (+250 μM BSA) medium containing a test substance (500 μM), followed by incubation for further 24 hours. After washing with PBS, the cells were lysed using dual luciferase assay system (product of Promega Corporation). To the resulting lysate was added a substrate solution containing luciferin, and firefly and renilla luciferase activities were measured by a luminometer. In the above-described manner, the PPARγ activating capacity was evaluated by measuring the transcriptional activity (luciferase activity) of the PPARγ-dependent gene. It is to be noted that the PPARγ-dependent gene transcriptional activity (luciferase activity) was defined as described below. […]

[2] = Evaluation of rancid odor (organoleptic); type: physicochemical; parameters: key: A: The sample is almost free from a rancid odor and the odor does not cause discomfort.; B: The sample emits a little rancid odor, but the odor causes little discomfort.; C: The sample emits a rancid odor and the odor causes discomfort.; D: The sample emits a severe rancid odor and the odor causes extreme discomfort; settings: oil or fat composition:water=70:30, room temperature for 1 week, smelled
Experimental: Each sample (each oil or fat composition:water=70:30) prepared in Example 3 was allowed to stand at room temperature for 1 week. The sample was smelled and organoleptic evaluation of rancid odor was performed based on the below-described criteria.

CC/C=C\C/C=C\C/C=C\C/C=C\C/C=C\CCCC(=O)O [Oil or Fat Composition 7, Eicosapentaenoic acid]
Gelling properties [1]: D
PPARγ (PPARγ-dependent transcriptional activity, luciferase, relative to control) (PPARγ): 480
Rancid odor [2]: D

CC/C=C\C/C=C\C/C=C\C/C=C\C/C=C\C/C=C\CCC(=O)O [Oil or Fat Composition 8, Docosahexaenoic acid]
Gelling properties [1]: D
PPARγ (PPARγ-dependent transcriptional activity, luciferase, relative to control) (PPARγ): 508
Rancid odor [2]: D
